Source: patent US11957671B2, “Benzodioxane modulators of leukotriene A4 hydrolase (LTA4H) for prevention and treatment of aging-associated diseases” (Alkahest, Inc., priority 2021, dated 2024)

Assays:
[1] = test system: aged wild type (WT; C57BL/6) mice; assay: Y-Maze; assay type: in vivo, mouse; details: 10 mg/kg PO daily
Method: A large Y-maze test assessed short-term memory of the familiarity of a specific context. Mice were brought to the experimental room for at least 30 min of acclimation to the experimental room conditions (dim lighting) prior to testing. For the initial training trial, the mouse was placed at the end of one arm of a large Y-maze designated “start arm” (arm length: 15 inches). The third arm of the maze was blocked off, allowing the mouse to explore two of the three arms freely (“start arm” and “familiar arm”) for 5 min. Each arm contained spatial cues. Three hours later, the mouse was placed back into the maze in the “start arm,” and allowed to explore all three arms with the third arm unblocked (“novel arm”). Movements in and out of each arm were tracked using automated tracking software (ANY-maze). Testing was performed under dim lighting, and the apparatus was cleaned with 70% ethanol between trials. The time spent and number of entireties into the “novel arm” and “familiar arm” were analyzed, as well as total distance travelled and velocity as measures of general locomotor activity.
Three independent cohorts of aged wild type (WT; C57BL/6) mice between twenty to twenty-two months of age (20-22 mo) were homogenized into two (2) groups by body weight, total distance travelled in the open field test, and average velocity in the open field test. Group 1 was administered vehicle control PO daily. Group 2 was administered 10 mg/kg of the LTA4H inhibitor Compound 1 PO daily. Both groups were dosed for either 10 days or 4 weeks daily. Behavioral assays were run during the last week of dosing and animals were sacrificed at the end of the study for histological and molecular assays.

[2] = test system: LTA4H hydrolysis activity in human whole blood; assay: Ex Vivo LTB4 Assay, human blood; assay type: cell-based; details: human whole blood incubated with compound
Method: Whole blood was incubated with Compound 1 or vehicle and then a calcium ionophore (Calcimycin, A23187), or 10% DMSO. LTB4 levels in plasma were measured using ELISA.
FIGS. 36-37 report the results of ex vivo target engagement assays with Compound 1 in human and mouse plasma. Whole blood from human or mouse was incubated with vehicle or Compound 1, following by a calcium ionophore stimulation. Plasma was generated and LTB4 levels were measured using ELISA. LTB4 is the product of LTA4H hydrolysis so this assay reports on LTA4H enzymatic activity.

aged C57BL6 mice = assay: Rotarod; assay type: in vivo, mouse; details: 19 days of dosing
Method: Mice were trained by allowing to run on the rotarod at 5 RPM speed setting on the i-Therm CTR-44 Rotarod for 5 minutes, if the mouse fell off it was put back on until it was able to complete minutes without falling off. After 15 minutes, if the mouse is unable to stay on the rotarod for a continuous 5 minutes, the mouse is excluded from analysis. Mice were then given 3 trials where the speed was increased from 5 RPM to 40 RPM over 90 seconds; the time at which the mouse fell off was recorded for each trial. Inter-trial interval is at least 15 minutes to allow the mice adequate rest. The rotarod is cleaned with 70% ethanol between trials.

Notch3R169C mice = assay: CADASIL transgenic mouse model Notch3R169C, 4 months dosing (Example 24); assay type: in vivo; details: 1 mg/kg PO BID 4 months
Method: Notch3^R169C mice (5-month-old) were treated PO BID with either vehicle or Compound 1 (1 mg/kg) for 4 months and littermate WT controls were treated with vehicle for 4 months. Prior to sacrifice, syringes were prepped with 7.5 μL of 1000 U/mL heparin. To increase LTB4 plasma levels, whole blood was stimulated with calcimycin prior to generation of plasma. First, 100 μL of 10 mM calcimycin (Sigma #C7522) in DMSO was diluted into 10 mL of PBS and sonicated for 10 minutes at 37° C. In a 96 well polystyrene plate (Corning 354657), 160 μL of mouse whole blood was collected for each animal and incubated for 15 minutes in a 37° C./5% CO2 (Panasonic MCO-230AICUV-PA). Next, 40 μL of the 100 μM calcimycin working solution was added to each well and incubated again for 30 minutes at 37° C./5% CO2. After incubation, the plates were centrifuged for 10 minutes at 4° C. at 1500 rpm. Plasma was diluted 1:10 and analyzed for LTB4 using LTB4 ELISA Kit (Enzo Life Sciences, ADI-901-068) in duplicate following the included kit protocol. The final readings were collected on a BMG LABTECH CLARIOstar plate reader at 405 nm. Brain tissue was dissected for cortex. One third of the cortex was homogenized in RIPA buffer (EMD Millipore 20-188) using an Omni BeadRuptor 24. Lysates were centrifuged for 10 mins at 10,000 g at 4° C. to collect the supernatant. Protein concentration was determined by BCA (Thermo Fisher 23225) and then diluted in PBS to approximately 10 mg/ml. Samples were sent to Eve Technologies for analysis.

aged C57BL/6 mice = assay: Long term potentiation (LTP) in hippocampal slices; assay type: in vivo, mouse; details: 1 month bid po, 1 mg/kg Compound 1 or 2.5 mg/kg SC57461A
Method: Aged C57BL/6 mice (21 months of age) were treated for 1 month bid po with vehicle, 1 mg/kg Compound 1, or 2.5 mg/kg SC57461A (n=5 mice per treatment group). Electrophysical recordings were performed at AfaSci, Inc, as follows. Animals were deeply anesthetized with halothane and decapitated. The brain was quickly taken out and placed into ice-cold artificial cerebrospinal fluid (ACSF) that was continuously bubbled with 5% CO2/95% O2. The ACSF was composed of (in mM) NaCl 130.0, KCl 2.5, KH2PO4 1.2, CaCl2 2.4, MgSO4 1.3, NaHCO326.0 and glucose 10.0 (pH 7.4). Hippocampal slices (400 μm thick) were prepared using a tissue slicer (Stoelting Co., IL) and incubated at room temperature in continuously oxygenated ACSF for at least 1 h before being recorded with submerged mode in chamber (Harvard Apparatus) at room temperature. Data were collected with an Axopatch-2B amplifier and pClamp 10.4 program (Axon Instruments) through digidata 1320A.
Field population spike (PS) was recorded using glass microelectrode filled with ACSF (resistance: 1-3 MO). Biphasic current pulses (0.2 ms duration for one phase, 0.4 ms in total) were delivered in 10 s intervals through a concentric bipolar stimulating electrode (FHC, Inc.). […] To record field population spikes in dorsal dentate gyrus, the stimulating electrode was placed on the hippocampal fissure to stimulate the bypassing perforant pathway fibers and the recording electrode was placed on inner part of granular cell layer. To record field EPSPs in DG, the stimulating electrode was placed on the hippocampal fissure to stimulate the bypassing perforant pathway fibers and the recording electrode was placed on inner part of granular cell layer. Slices were recorded within 8 hours after dissection. Titanic stimulation consisted of 2 trains of 100 pulses (0.4 ms bipolar pulse duration, 100 Hz) lasting for 1 second with 5 seconds of interval. The slope of EPSP and amplitude of population spike were measured from the initial phase of negative wave with Clampfit10.4. Each data point was measured with average of 3 consecutive traces. LTP was plotted as the percentage to baseline following high frequency stimulation (mean±SEM).

SMILES: O=C(O)C1CCN(Cc2ccc([C@H]3COc4ccccc4O3)cc2)CC1 [Example 1, 1-{4-[(2S)-2,3-dihydro-1,4-benzodioxin-2-yl]benzyl}piperidine-4-carboxylic acid]
- entries into the N and F arms during testing ([1]; after 12 days of treatment): enter the N and F arms equally
- percent time spent in the novel (N) or familiar (F) arms during testing ([1]; after 12 days of treatment): significantly more time in the novel arm
- percent time spent in the novel (N) or familiar (F) arms during testing ([1]; after 18 days of treatment): significantly improved
- percentage of entries into the N and F arms ([1]; after 18 days of treatment): enter the novel arm significantly more than the familiar arm
- percentage of entries into the N and F arms ([1]; after 26 days of treatment): enter the novel arm significantly more than the familiar arm
- LTB4 plasma levels after calcium ionophore stimulation [2]: reduces LTB4 plasma levels to unstimulated levels
- average time before falling on the rotarod (aged C57BL6 mice): no change in average time before falling
- IL-2 levels in plasma (Notch3R169C mice): significantly reduced
- IL-7 levels in brain cortex lysate (Notch3R169C mice): significantly reduced
- LTB4 levels in stimulated plasma (Notch3R169C mice): significantly reduced
- LTB4 levels in unstimulated plasma (Notch3R169C mice): no change in LTB4 levels detected between groups
- LTP, CA1 region of the hippocampus (aged C57BL/6 mice): increase in LTP
- LTP, DG region of the hippocampus (aged C57BL/6 mice): increase in LTP
